# Assay results reported in PMC9856672, “SGC-CAMKK2-1: A Chemical Probe for CAMKK2” (Cells, 2023).
# Legend:
# MEK5 = target: T1, MEK5 (Homo sapiens, UniProt Q13163); assay: KINOMEscan 1 μM, MEK5; assay type: binding; conditions: 1000 nM; Entrez MAP2K5; read-out: Percent Control
# T1 construct: purchased Eurofins DiscoverX KINOMEscan
# Excerpt: (§1) Supplement cells-12-00287-s001.zip/File S2. KinomeScan data for the CAMKK2 probe and negative control.xlsx, sheet "SGC-CAMKK2-1" | column: Percent Control
# DDR1 = target: T2, DDR1 (Homo sapiens, UniProt Q08345); assay: KINOMEscan 1 μM, DDR1; assay type: binding; conditions: 1000 nM; Entrez DDR1; read-out: Percent Control
# T2 construct: purchased Eurofins DiscoverX KINOMEscan
# Excerpt: as §1
# FLT3(R834Q) = target: T3, FLT3(R834Q) (Homo sapiens, UniProt P36888, R834Q); assay: KINOMEscan 1 μM, FLT3(R834Q); assay type: binding; conditions: 1000 nM; Entrez FLT3; read-out: Percent Control
# T3 construct: purchased Eurofins DiscoverX KINOMEscan
# Excerpt: as §1
# MYLK2 = target: T4, MYLK2 (Homo sapiens, UniProt Q9H1R3); assay: KINOMEscan 1 μM, MYLK2; assay type: binding; conditions: 1000 nM; Entrez MYLK2; read-out: Percent Control
# T4 construct: purchased Eurofins DiscoverX KINOMEscan
# Excerpt: as §1
# DCAMKL2 = target: T5, DCAMKL2 (Homo sapiens, UniProt Q8N568); assay: KINOMEscan 1 μM, DCAMKL2; assay type: binding; conditions: 1000 nM; Entrez DCLK2; read-out: Percent Control
# T5 construct: purchased Eurofins DiscoverX KINOMEscan
# Excerpt: as §1
# IKK-alpha = target: T6, IKK-alpha (Homo sapiens, UniProt O15111); assay: KINOMEscan 1 μM, IKK-alpha; assay type: binding; conditions: 1000 nM; Entrez CHUK; read-out: Percent Control
# T6 construct: purchased Eurofins DiscoverX KINOMEscan
# T6 sequence (O15111 whole entry): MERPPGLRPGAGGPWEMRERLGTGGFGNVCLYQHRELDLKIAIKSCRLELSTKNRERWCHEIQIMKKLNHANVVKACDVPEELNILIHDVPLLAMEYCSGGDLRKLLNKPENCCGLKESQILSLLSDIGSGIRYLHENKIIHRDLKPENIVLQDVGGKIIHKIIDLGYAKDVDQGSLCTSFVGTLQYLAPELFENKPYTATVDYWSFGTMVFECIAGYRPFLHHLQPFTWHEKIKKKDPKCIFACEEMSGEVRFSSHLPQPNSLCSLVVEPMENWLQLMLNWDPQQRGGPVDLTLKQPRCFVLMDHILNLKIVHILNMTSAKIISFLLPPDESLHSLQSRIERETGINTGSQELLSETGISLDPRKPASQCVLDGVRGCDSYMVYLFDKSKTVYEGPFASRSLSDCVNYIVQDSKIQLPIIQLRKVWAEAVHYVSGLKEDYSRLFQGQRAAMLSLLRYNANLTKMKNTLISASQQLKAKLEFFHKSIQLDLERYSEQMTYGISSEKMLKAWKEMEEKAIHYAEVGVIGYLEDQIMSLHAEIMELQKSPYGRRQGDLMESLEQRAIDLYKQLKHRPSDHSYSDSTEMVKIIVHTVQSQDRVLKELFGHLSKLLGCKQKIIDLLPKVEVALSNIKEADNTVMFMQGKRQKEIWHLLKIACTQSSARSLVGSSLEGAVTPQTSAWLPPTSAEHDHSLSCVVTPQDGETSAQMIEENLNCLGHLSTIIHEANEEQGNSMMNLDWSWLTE
# Excerpt: as §1
# JNK2 = target: T7, JNK2 (Homo sapiens, UniProt P45984); assay: KINOMEscan 1 μM, JNK2; assay type: binding; conditions: 1000 nM; Entrez MAPK9; read-out: Percent Control
# T7 construct: purchased Eurofins DiscoverX KINOMEscan
# Excerpt: as §1
# CSNK2A2 = target: T8, CSNK2A2 (Homo sapiens, UniProt P19784); assay: KINOMEscan 1 μM, CSNK2A2; assay type: binding; conditions: 1000 nM; Entrez CSNK2A2; read-out: Percent Control
# T8 construct: purchased Eurofins DiscoverX KINOMEscan
# Excerpt: as §1
# GSK3A = target: T9, GSK3A (Homo sapiens, UniProt P49840); assay: KINOMEscan 1 μM, GSK3A; assay type: binding; conditions: 1000 nM; Entrez GSK3A; read-out: Percent Control
# T9 construct: purchased Eurofins DiscoverX KINOMEscan
# T9 sequence (P49840 whole entry): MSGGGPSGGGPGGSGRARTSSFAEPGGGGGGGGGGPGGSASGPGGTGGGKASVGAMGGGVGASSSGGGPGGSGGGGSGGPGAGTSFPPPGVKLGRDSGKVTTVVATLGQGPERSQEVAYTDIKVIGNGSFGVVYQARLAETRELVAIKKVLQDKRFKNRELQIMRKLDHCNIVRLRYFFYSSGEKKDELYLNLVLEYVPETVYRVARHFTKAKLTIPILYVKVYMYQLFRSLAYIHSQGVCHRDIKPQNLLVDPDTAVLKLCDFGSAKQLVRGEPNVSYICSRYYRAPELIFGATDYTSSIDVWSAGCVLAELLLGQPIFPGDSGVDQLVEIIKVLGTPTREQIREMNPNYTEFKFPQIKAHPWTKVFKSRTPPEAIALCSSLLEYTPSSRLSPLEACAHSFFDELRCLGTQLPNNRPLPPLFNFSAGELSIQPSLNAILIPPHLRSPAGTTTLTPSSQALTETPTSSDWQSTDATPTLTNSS
# Excerpt: as §1
# RIPK1 = target: T10, RIPK1 (Homo sapiens, UniProt Q13546); assay: KINOMEscan 1 μM, RIPK1; assay type: binding; conditions: 1000 nM; Entrez RIPK1; read-out: Percent Control
# T10 construct: purchased Eurofins DiscoverX KINOMEscan
# Excerpt: as §1
# MAP4K3 = target: T11, MAP4K3 (Homo sapiens, UniProt Q8IVH8); assay: KINOMEscan 1 μM, MAP4K3; assay type: binding; conditions: 1000 nM; Entrez MAP4K3; read-out: Percent Control
# T11 construct: purchased Eurofins DiscoverX KINOMEscan
# Excerpt: as §1
# PIK3CG = target: T12, PIK3CG (Homo sapiens, UniProt P48736); assay: KINOMEscan 1 μM, PIK3CG; assay type: binding; conditions: 1000 nM; Entrez PIK3CG; read-out: Percent Control
# T12 construct: purchased Eurofins DiscoverX KINOMEscan
# T12 sequence (P48736 whole entry): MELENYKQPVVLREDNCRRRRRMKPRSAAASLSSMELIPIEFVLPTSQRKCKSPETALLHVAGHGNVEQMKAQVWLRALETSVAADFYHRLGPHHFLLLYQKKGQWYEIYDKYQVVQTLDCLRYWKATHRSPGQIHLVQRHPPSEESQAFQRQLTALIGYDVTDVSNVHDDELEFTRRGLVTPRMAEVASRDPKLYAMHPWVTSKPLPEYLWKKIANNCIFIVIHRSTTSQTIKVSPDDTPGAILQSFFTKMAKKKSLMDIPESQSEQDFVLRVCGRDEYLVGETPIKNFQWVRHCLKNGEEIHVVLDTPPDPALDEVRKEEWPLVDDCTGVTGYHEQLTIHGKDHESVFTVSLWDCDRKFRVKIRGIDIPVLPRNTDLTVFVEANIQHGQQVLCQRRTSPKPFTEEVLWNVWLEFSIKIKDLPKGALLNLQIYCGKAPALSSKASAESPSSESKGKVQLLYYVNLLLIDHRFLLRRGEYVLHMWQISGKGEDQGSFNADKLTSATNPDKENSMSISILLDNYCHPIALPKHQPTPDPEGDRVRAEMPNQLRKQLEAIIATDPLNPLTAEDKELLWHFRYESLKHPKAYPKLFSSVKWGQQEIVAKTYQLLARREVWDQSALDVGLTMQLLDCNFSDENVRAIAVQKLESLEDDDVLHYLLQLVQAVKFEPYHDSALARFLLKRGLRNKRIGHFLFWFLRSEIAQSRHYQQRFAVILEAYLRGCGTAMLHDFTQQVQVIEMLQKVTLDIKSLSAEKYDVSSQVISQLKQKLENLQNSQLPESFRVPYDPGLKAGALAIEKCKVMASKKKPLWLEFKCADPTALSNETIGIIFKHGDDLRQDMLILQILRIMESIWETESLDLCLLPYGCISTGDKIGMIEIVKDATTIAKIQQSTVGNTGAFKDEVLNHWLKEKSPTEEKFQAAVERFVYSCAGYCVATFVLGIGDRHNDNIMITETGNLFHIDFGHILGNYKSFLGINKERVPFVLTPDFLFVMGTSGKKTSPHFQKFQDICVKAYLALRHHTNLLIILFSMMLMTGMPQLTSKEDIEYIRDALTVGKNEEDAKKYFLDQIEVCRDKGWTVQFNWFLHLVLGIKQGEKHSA
# Excerpt: as §1
# PLK2 = target: T13, PLK2 (Homo sapiens, UniProt Q9NYY3); assay: DiscoverX KINOMEscan binding assay at 1 μM, PLK2; conditions: Compound Concentration 1000 nM, read-out: Percent Control
# T13 construct: purchased Eurofins DiscoverX KINOMEscan
# Excerpt: as §1
# STK39 = target: T14, STK39 (Homo sapiens, UniProt Q9UEW8); assay: KINOMEscan 1 μM, STK39; assay type: binding; conditions: 1000 nM; Entrez STK39; read-out: Percent Control
# T14 construct: purchased Eurofins DiscoverX KINOMEscan
# Excerpt: as §1
# CDC2L1 = target: T15, CDC2L1 (Homo sapiens, UniProt P21127); assay: KINOMEscan 1 μM, CDC2L1; assay type: binding; conditions: 1000 nM; Entrez CDK11B; read-out: Percent Control
# T15 construct: purchased Eurofins DiscoverX KINOMEscan
# Excerpt: as §1
# KIT(D816H) = target: T16, KIT(D816H) (Homo sapiens, UniProt P10721, D816H); assay: KINOMEscan at 1 μM, KIT(D816H); assay type: binding; conditions: 1000 nM, read-out: Percent Control
# T16 construct: purchased Eurofins DiscoverX KINOMEscan
# Excerpt: (§2) Supplement cells-12-00287-s001.zip/File S2. KinomeScan data for the CAMKK2 probe and negative control.xlsx, sheet "SGC-CAMKK2-1N" | column: Percent Control
# NEK11 = target: T17, NEK11 (Homo sapiens, UniProt Q8NG66); assay: KINOMEscan at 1 μM, NEK11; assay type: binding; conditions: 1000 nM, read-out: Percent Control
# T17 construct: purchased Eurofins DiscoverX KINOMEscan
# Excerpt: as §2
# MAPKAPK5 = target: T18, MAPKAPK5 (Homo sapiens, UniProt Q8IW41); assay: KINOMEscan binding assay at 1 μM, MAPKAPK5; conditions: Compound Concentration 1000 nM; read-out: Percent Control
# T18 construct: purchased Eurofins DiscoverX KINOMEscan
# Excerpt: as §2
# TAOK1 = target: T19, TAOK1 (Homo sapiens, UniProt Q7L7X3); assay: KINOMEscan at 1 μM, TAOK1; assay type: binding; conditions: 1000 nM, read-out: Percent Control
# T19 construct: purchased Eurofins DiscoverX KINOMEscan
# Excerpt: as §2
# TAOK3 = target: T20, TAOK3 (Homo sapiens, UniProt Q9H2K8); assay: KINOMEscan at 1 μM, TAOK3; assay type: binding; conditions: 1000 nM, read-out: Percent Control
# T20 construct: purchased Eurofins DiscoverX KINOMEscan
# Excerpt: as §2
# BMPR1B = target: T21, BMPR1B (Homo sapiens, UniProt O00238); assay: KINOMEscan at 1 μM, BMPR1B; assay type: binding; conditions: 1000 nM, read-out: Percent Control
# T21 construct: purchased Eurofins DiscoverX KINOMEscan
# T21 sequence (O00238 14-502): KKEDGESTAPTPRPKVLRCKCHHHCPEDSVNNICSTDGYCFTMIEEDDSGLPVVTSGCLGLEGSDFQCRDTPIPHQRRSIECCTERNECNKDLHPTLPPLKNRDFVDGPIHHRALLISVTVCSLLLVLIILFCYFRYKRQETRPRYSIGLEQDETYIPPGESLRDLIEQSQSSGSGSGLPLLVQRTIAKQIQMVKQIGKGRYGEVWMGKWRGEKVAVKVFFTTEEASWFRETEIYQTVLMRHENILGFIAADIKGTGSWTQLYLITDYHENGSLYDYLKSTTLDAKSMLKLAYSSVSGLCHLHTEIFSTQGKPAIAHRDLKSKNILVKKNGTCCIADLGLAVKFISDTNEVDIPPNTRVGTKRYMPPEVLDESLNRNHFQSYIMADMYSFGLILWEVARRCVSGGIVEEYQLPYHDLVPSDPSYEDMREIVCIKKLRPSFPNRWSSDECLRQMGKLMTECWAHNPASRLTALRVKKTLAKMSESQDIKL
# Excerpt: as §2
# PIK3CA(E545K) = target: T22, PIK3CA(E545K) (Homo sapiens, UniProt P42336, E545K); assay: KINOMEscan at 1 μM, PIK3CA(E545K); assay type: binding; conditions: 1000 nM, read-out: Percent Control
# T22 construct: purchased Eurofins DiscoverX KINOMEscan
# Excerpt: as §2
# FGR = target: T23, FGR (Homo sapiens, UniProt P09769); assay: KINOMEscan at 1 μM, FGR; assay type: binding; conditions: 1000 nM, read-out: Percent Control
# T23 construct: purchased Eurofins DiscoverX KINOMEscan
# T23 sequence (P09769 whole entry): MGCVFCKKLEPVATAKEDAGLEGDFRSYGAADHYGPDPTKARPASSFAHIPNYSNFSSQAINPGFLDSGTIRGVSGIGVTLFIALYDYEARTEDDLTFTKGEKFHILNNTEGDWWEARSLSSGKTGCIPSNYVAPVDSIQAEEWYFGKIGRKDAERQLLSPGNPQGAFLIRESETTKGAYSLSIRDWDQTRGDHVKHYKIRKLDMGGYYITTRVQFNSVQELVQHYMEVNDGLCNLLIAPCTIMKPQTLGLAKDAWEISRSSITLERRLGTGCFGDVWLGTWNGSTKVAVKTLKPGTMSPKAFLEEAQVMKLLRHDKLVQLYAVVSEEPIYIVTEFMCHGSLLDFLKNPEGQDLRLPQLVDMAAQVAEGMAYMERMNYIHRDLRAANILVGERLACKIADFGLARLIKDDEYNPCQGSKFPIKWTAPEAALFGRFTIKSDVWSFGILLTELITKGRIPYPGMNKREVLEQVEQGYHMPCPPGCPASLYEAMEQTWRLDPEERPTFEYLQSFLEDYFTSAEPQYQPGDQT
# Excerpt: as §2
# SRMS = target: T24, SRMS (Homo sapiens, UniProt Q9H3Y6); assay: KINOMEscan at 1 μM, SRMS; assay type: binding; conditions: 1000 nM, read-out: Percent Control
# T24 construct: purchased Eurofins DiscoverX KINOMEscan
# Excerpt: as §2
# BIKE = target: T25, BIKE (Homo sapiens, UniProt Q9NSY1); assay: KINOMEscan at 1 μM, BIKE; assay type: binding; conditions: 1000 nM, read-out: Percent Control
# T25 construct: purchased Eurofins DiscoverX KINOMEscan
# T25 sequence (Q9NSY1 whole entry): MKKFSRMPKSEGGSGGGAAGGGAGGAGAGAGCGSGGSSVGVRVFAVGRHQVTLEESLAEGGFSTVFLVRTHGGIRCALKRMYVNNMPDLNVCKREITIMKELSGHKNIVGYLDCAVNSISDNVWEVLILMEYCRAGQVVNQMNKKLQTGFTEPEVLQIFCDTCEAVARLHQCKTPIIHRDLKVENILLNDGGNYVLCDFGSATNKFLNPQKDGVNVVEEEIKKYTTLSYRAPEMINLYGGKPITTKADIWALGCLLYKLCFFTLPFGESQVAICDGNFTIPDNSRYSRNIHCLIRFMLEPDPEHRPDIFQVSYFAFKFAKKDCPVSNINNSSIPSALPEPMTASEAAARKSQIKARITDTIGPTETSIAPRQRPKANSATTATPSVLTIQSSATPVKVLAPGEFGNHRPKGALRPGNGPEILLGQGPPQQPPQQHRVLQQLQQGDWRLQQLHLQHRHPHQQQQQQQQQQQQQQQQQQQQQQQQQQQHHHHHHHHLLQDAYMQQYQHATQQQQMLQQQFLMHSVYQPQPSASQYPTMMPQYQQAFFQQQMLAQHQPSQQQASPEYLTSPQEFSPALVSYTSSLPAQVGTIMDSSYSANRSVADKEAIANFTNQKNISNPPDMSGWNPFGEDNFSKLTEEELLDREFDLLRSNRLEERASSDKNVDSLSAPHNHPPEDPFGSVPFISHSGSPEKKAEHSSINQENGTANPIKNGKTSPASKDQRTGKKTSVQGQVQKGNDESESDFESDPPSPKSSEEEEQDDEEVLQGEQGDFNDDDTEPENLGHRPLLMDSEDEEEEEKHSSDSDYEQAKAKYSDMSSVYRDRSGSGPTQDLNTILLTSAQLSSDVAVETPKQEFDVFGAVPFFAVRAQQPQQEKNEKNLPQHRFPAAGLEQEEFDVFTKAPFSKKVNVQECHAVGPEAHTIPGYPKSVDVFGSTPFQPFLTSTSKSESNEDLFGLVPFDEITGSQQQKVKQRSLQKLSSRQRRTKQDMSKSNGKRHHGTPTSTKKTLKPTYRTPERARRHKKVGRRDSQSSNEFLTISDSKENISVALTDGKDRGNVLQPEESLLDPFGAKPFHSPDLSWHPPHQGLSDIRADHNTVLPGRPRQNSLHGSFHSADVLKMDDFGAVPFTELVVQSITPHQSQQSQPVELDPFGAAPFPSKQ
# Excerpt: as §2
# [1] = target: T26, ABL1(H396P)-phosphorylated (Homo sapiens, UniProt P00519, H396P); assay: KINOMEscan at 1 μM, ABL1(H396P)-phosphorylated; assay type: binding; conditions: 1000 nM, read-out: Percent Control
# T26 construct: purchased Eurofins DiscoverX KINOMEscan
# Excerpt: as §2
# BRK = target: T27, BRK (Homo sapiens, UniProt Q13882); assay: KINOMEscan at 1 μM, BRK; assay type: binding; conditions: 1000 nM, read-out: Percent Control
# T27 construct: purchased Eurofins DiscoverX KINOMEscan
# Excerpt: as §2
# PKAC-beta = target: T28, PKAC-beta (Homo sapiens, UniProt P22694); assay: KINOMEscan binding assay at 1 μM, PKAC-beta; conditions: Compound Concentration 1000 nM; read-out: Percent Control
# T28 construct: purchased Eurofins DiscoverX KINOMEscan
# Excerpt: as §2
# BLK = target: T29, BLK (Homo sapiens, UniProt P51451); assay: KINOMEscan at 1 μM, BLK; assay type: binding; conditions: 1000 nM, read-out: Percent Control
# T29 construct: purchased Eurofins DiscoverX KINOMEscan
# Excerpt: as §2
# AKT1 = target: T30, AKT1 (Homo sapiens, UniProt P31749); assay: KINOMEscan at 1 μM, AKT1; assay type: binding; conditions: 1000 nM, read-out: Percent Control
# T30 construct: purchased Eurofins DiscoverX KINOMEscan
# Excerpt: as §2
# MERTK = target: T31, MERTK (Homo sapiens, UniProt Q12866); assay: KINOMEscan at 1 μM, MERTK; assay type: binding; conditions: 1000 nM, read-out: Percent Control
# T31 construct: purchased Eurofins DiscoverX KINOMEscan
# Excerpt: as §2
# PKMYT1 = target: T32, PKMYT1 (Homo sapiens, UniProt Q99640); assay: KINOMEscan at 1 μM, PKMYT1; assay type: binding; conditions: 1000 nM, read-out: Percent Control
# T32 construct: purchased Eurofins DiscoverX KINOMEscan
# Excerpt: as §2
# WNK2 = target: T33, WNK2 (Homo sapiens, UniProt Q9Y3S1); assay: KINOMEscan at 1 μM, WNK2; assay type: binding; conditions: 1000 nM, read-out: Percent Control
# T33 construct: purchased Eurofins DiscoverX KINOMEscan
# Excerpt: as §2
# MAP3K4 = target: T34, MAP3K4 (Homo sapiens, UniProt Q9Y6R4); assay: KINOMEscan at 1 μM, MAP3K4; assay type: binding; conditions: 1000 nM, read-out: Percent Control
# T34 construct: purchased Eurofins DiscoverX KINOMEscan
# Excerpt: as §2
# T1 sequence (Q13163 whole entry): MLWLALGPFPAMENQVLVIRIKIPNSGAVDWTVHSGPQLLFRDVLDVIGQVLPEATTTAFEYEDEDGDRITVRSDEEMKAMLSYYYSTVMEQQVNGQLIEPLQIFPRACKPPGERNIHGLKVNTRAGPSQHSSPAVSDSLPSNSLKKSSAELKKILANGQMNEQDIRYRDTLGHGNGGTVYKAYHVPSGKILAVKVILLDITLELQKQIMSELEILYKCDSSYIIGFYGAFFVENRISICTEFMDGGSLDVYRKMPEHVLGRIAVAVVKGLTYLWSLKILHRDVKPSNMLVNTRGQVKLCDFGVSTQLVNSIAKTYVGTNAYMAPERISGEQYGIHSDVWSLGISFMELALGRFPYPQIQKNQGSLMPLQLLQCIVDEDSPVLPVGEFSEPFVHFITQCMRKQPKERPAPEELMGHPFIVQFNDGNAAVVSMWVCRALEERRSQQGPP
smiles,measurement,setting,value
Cc1cccc(-c2cnc3occ(-c4ccc(C(=O)O)c(C5CCCC5)c4)c3c2)c1 [SGC-CAMKK2-1 (YL-36)],remaining binding at 1 µM,MEK5,84%
same,remaining binding at 1 µM,DDR1,98%
same,remaining binding at 1 µM,FLT3(R834Q),100%
same,remaining binding at 1 µM,MYLK2,100%
same,remaining binding at 1 µM,DCAMKL2,94%
same,remaining binding at 1 µM,IKK-alpha,100%
same,remaining binding at 1 µM,JNK2,100%
same,remaining binding at 1 µM,CSNK2A2,100%
same,remaining binding at 1 µM,GSK3A,92%
same,remaining binding at 1 µM,RIPK1,93%
same,remaining binding at 1 µM,MAP4K3,78%
same,remaining binding at 1 µM,PIK3CG,76%
same,remaining binding at 1 µM,PLK2,100%
same,remaining binding at 1 µM,STK39,64%
same,remaining binding at 1 µM,CDC2L1,93%
O=C(O)c1ccc(-c2coc3ncc(-c4ccccc4)cc23)cc1Cl [SGC-CAMKK2-1N (UNC-YL-83)],remaining binding at 1 µM,KIT(D816H),57%
same,remaining binding at 1 µM,NEK11,62%
same,remaining binding at 1 µM,MAPKAPK5,100%
same,remaining binding at 1 µM,TAOK1,77%
same,remaining binding at 1 µM,TAOK3,79%
same,remaining binding at 1 µM,BMPR1B,65%
same,remaining binding at 1 µM,PIK3CA(E545K),93%
same,remaining binding at 1 µM,FGR,54%
same,remaining binding at 1 µM,SRMS,79%
same,remaining binding at 1 µM,BIKE,94%
same,remaining binding at 1 µM,[1],74%
same,remaining binding at 1 µM,BRK,96%
same,remaining binding at 1 µM,PKAC-beta,100%
same,remaining binding at 1 µM,BLK,87%
same,remaining binding at 1 µM,AKT1,100%
same,remaining binding at 1 µM,MERTK,93%
same,remaining binding at 1 µM,PKMYT1,94%
same,remaining binding at 1 µM,WNK2,58%
same,remaining binding at 1 µM,MAP3K4,68%
